# Results from patent US7550613B2, “Compounds” (Pronova Biopharma Norge AS, priority 2005, dated 2009).
# Key:
# PPARγ = biological target: T1, PPARγ (Homo sapiens, UniProt P37231); assay: Affinity testing in transfected cells (release of luciferase); assay type: cell-based; conditions: FIG. 8; 10 μM of PRBs
# T1 construct: For full length PPAR transfection studies, each well received 5 μg reporter construct; expressed in transfected cells; host or cells: COS-1 cells
# T1 sequence (P37231 1-505): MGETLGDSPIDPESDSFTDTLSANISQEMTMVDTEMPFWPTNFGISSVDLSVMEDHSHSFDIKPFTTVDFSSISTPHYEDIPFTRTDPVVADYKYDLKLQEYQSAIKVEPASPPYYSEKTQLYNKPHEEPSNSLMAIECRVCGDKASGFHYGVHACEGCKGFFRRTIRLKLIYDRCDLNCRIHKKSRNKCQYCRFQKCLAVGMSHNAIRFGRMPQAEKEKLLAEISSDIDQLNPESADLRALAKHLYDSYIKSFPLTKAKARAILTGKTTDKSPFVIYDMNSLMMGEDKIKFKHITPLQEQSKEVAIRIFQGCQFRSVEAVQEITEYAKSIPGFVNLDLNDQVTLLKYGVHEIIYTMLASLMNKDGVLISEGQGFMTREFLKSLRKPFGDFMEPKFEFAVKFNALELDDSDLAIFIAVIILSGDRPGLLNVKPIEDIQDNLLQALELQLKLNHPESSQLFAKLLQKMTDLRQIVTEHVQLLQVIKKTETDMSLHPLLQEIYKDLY
# Method: Release of luciferase is correlated to transcription of genes. Binding of a ligand to a nuclear receptor such as PPARγ induces transcription of the respective gene thereby releasing luciferase. This technique therefore provides a measure of ligand affinity to the receptor as well as activation of the responsible gene.
# Transient transfection of COS-1 cells was performed in 6-well plates as described by Graham and van der Eb (Graham). For full length PPAR transfection studies, each well received 5 μg reporter construct, 2.5 μg pSV-β-galactosidase as an internal control, 0.4 μg pSG5-PPARγ2. The cells were harvested after 72 h, and the luciferase activity was measured according to the protocol (Promega). The luciferase activity was normalised against β-galactosidase activity. The adipocytes were transfected at D11 of differentiation using 16 μl LipofectaminPlus reagent, 4 μl Lipofectamine (Life Technologies Inc.), 0.2 μg pSG5-PPARγ, and 100 ng pTK Renilla luciferase as control of transfection afficiency. […] The luciferase activities were measured as recommended by the manufacturer (Dual Luciferase assay, Promega). […]
# Fatty acids (BRL or DHA) and PRBs (stock solutions) were solubilized to 0.1 M final concentration in DMSO. […] Luciferase activity was measured using a luminometer (TD-20/20 luminometer; Turner Designs, Sunnycvale, Calif.) and normalized against protein content.
# [1] = Effect of DHA derivatives on established metabolic syndrome and insulin resistance (Example 5b); assay type: in vivo, C57BL/6 mice
# Method: In another experiment, PRB-2, PRB-5, and PRB-7 were tested in the same breed of animals. In this experiment, animals were initially fed high fat diet (the same as in the previous experiment 5a) for 8 weeks developing insulin resistance and the metabolic syndrome, and then given the PRBs. […] After a period of another two weeks the animals were given 1.5% of PRB-2, 5% and 1.5% of PRB-5, and 1.5% and 0.5% of PRB-7.
compound,measurement,setting,value
"CC/C=C\C/C=C\C/C=C\C/C=C\C/C=C\C/C=C\CC(SCC)C(=O)OCC (stereo not drawn) [PRB-7, α-tioethyl docosahexaenoic acid ethyl ester]",release of luciferase from transfected cells,PPARγ,significantly higher release of luciferase
same,plasma insulin,[1]; FIG. 15,some effects on the insulin concentration
same,AUC blood glucose compared to the baseline values,"[1]; FIG. 16, 1.5% of PRB-2",some effect but not to the same extent
